{"source": "paper PMC9025269", "about": "“Synthesis and Anti-Hepatitis B Activities of 3′-Fluoro-2′-Substituted Apionucleosides” (Molecules, 2022)", "key": {"[1]": {"target": "T1, HIV-1 reverse transcriptase (HIV-1 RT) (Human immunodeficiency virus type 1 group M subtype B, UniProt P03366)", "T1 construct": "HIV-1 reverse transcriptase (HIV-1 RT) was purchased from Abcam (cat#ab63979); purchased Abcam ab63979", "assay": "HIV-1 reverse transcriptase RdDp activity assay", "type": "biochemical", "source_text": "HIV-1 reverse transcriptase (HIV-1 RT) was purchased from Abcam (cat#ab63979). Recombinant HBV polymerase (Hepatitis B virus genotype D subtype ayw, full length) was cloned using the baculovirus system, expressed in sf9 cells, and purified with similar strategy and methods described by Lanford et al.. A DNA primer (5′-[…]-3′) was synthesized by IDTDNA and a 358-nt RNA template was synthesized in-house using Megascript T7 transcription kit (ThermoFisher, cat#AM1334). dNTPs were purchased from Thermo Fisher and ^3H-dTTP from Perkin Elmer. Filter plates were purchased from Millipore (cat#MABN0V050) and microscint-20 was purchased from Perkin Elmer (cat#6013621).\nThe RNA-dependent DNA polymerization (RdDp) activity of HIV-1 RT was measured by the incorporation of radioactively labeled nucleotides by HIV-1 RT into acid-insoluble DNA products from the DNA primer primed RNA template. To test compound inhibition, the reactions were performed at 30 °C for 40 min in a reaction mixture containing reaction buffer (50 mM Tris-Cl, pH 7.5, 100 mM KCl, 12.5 mM MgCl2, 4 mM DTT), 1 nM HIV-1 RT, 0.1 µM DNA primer, 0.02 µM RNA template, 10% DMSO, 0.1 µM dATP, 1 µM dGTP, 0.1 µM dCTP, 0.32 µM ^3H-dTTP, and compounds at various concentrations. The 50 µL reactions were performed in 96-well plates. The reactions were quenched with a 60 µL cold mixture of 20% (w/v) TCA and 0.5 mM ATP and incubated at 4 °C for 1 h. The reactions were loaded onto 96-well filter plates. The filters on plates were washed three times with 10% TCA and once with 70% ethanol on a Millipore plate wash station with vacuum applied. The filters on the plate were air-dried and 40 μL Microscint-20 was added to each well. The acid-precipitated tritiated DNA products retained on the filters were detected by a Trilux MicroBeta scintillation reader (Perkin Elmer).\nAll data were analyzed with GraphPad Prism. The compound concentration at which the enzyme-catalyzed rate was reduced by 50% (IC50) was calculated by fitting the data to the equation Y = % Min + (% Max − % Min) / (1 + 10^((logIC50-X)*h)), where Y corresponds to the percent inhibition to the enzyme activity, % Min is the residual inhibition activity without compound, % Max is the maximum inhibition of enzyme activity at saturating compound concentration, and X corresponds to the log of compound concentrations, and h is the hillslope."}, "human DNA polymerase α": {"target": "T2, human DNA polymerase α (Homo sapiens, UniProt P09884)", "T2 construct": "purchased CHIMERx 1075-1", "T2 sequence (P09884 1-1462)": "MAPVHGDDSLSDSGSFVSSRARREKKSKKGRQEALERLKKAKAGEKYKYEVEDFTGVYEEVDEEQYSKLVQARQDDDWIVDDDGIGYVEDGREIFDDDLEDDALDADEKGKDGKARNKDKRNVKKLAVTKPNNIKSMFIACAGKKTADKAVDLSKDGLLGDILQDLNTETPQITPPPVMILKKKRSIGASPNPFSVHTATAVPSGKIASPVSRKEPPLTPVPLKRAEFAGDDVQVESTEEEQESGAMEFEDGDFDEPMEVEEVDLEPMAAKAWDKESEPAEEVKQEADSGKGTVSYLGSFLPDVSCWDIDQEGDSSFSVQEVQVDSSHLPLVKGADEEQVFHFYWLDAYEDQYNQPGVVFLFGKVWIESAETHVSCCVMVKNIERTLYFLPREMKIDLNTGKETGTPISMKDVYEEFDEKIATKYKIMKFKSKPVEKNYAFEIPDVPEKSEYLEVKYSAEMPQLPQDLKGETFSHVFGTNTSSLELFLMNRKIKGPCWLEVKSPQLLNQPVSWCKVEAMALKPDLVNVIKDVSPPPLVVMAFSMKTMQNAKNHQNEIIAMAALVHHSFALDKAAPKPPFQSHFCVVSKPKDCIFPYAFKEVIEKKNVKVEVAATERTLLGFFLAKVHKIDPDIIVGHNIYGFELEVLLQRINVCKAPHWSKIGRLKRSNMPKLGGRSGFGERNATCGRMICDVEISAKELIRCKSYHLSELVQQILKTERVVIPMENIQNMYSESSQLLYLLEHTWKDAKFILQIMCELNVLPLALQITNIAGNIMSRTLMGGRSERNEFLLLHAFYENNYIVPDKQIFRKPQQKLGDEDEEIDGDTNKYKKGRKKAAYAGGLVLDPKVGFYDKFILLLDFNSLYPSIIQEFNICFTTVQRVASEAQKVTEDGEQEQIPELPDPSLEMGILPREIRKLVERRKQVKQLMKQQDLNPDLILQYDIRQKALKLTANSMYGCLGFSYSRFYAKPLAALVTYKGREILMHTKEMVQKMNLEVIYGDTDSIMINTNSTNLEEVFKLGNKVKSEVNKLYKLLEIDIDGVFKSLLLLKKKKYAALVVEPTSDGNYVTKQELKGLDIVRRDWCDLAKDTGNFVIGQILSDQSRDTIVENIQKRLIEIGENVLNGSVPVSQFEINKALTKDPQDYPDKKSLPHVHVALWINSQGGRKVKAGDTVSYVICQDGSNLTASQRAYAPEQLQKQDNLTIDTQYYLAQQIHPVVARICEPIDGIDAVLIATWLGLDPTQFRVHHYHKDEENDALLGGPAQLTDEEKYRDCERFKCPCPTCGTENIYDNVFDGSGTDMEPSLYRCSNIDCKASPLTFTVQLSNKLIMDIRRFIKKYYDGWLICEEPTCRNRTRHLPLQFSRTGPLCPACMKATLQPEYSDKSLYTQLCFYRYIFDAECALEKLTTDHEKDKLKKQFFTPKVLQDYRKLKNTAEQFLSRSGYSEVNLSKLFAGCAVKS", "assay": "Human DNA polymerase α DdDp assay", "type": "biochemical", "procedure": "The DNA-dependent DNA polymerization (DdDp) activity of human DNA polymerases α, β, and γ was measured as described previously. Briefly, the assays were run with 5 U/mL recombinant DNA polymerase α (CHIMERx, cat#1075-1), 0.5 U/mL recombinant DNA polymerase β (CHIMERx, cat#1077-1), or 0.1 μg/mL recombinant DNA polymerase γ (Abcam, cat#196066), 62 μg/mL activated calf thymus DNA, 50 mM Tris-HCl (pH 8.0), 60 mM KCl, 5 mM MgCl2, 4 mM dithiothreitol (DTT), 0.1 mg/mL BSA, 2 μM dCTP, 2 μM dATP, 2 μM dGTP, 0.05 μCi/μL ^3H-dTTP (Perkin Elmer) and compounds at various concentrations at 30 °C for 2 h. The 50 μL reactions were processed following the same filter plate method as described above for HIV-1 RT. Acid-precipitated tritiated DNA products retained on the filters were detected by a Trilux MicroBeta scintillation reader (Perkin Elmer). All data were analyzed as described above for HIV-1 RT."}}, "note": "pIC50: −log10 of the molar value."}
{"smiles": "Nc1ncnc2c1ncn2[C@@H]1OC[C@](F)(COP(=O)(O)OP(=O)(O)OP(=O)(O)O)[C@H]1CO", "note": "[Compound 38, ((3S,4S,5R)-5-(6-Amino-9H-purin-9-yl)-3-fluoro-4-(hydroxymethyl)tetrahydrofuran-3-yl)methyl triphosphate]", "values": [{"measurement": "pIC50", "setting": "[1]", "result": 6.49}, {"measurement": "inhibition of HIV-1 RT", "setting": "[1]", "result": "potent inhibitor of HIV-1 RT"}, {"measurement": "pIC50", "setting": "human DNA polymerase α", "result": 4.10}, {"measurement": "inhibition of human DNA polymerases", "setting": "human DNA polymerase α; human DNA polymerases α, β and γ together", "result": "low or no inhibition activity against human DNA polymerases"}]}
